Data reported in article PMC10747822 (Pharmaceutics, 2023).

Experiments:
[1] = human whole blood (K-EDTA); details: room temperature, up to 2 h
[2] = Pooled human plasma (Li-heparin); details: room temperature, up to 2 h

## Ac-[D-Leu]LLLRVK-amba
[1]
  not cleaved: no detectable degradation over at least 2 h
[2]
  not cleaved: no detectable degradation over at least 2 h
